From patent publication US20070155693A1, “Inhibitor of cancer bone metastasis” (ORIENT CANCER THERAPY CO., LTD., priority 2004, published 2007)

Tests used:
bone metastasis pain = assay: Clinical cases: pain from bone metastasis; type: in vivo, human; details: for generalized bone pain: morphine 240 mg/day, Leuplin hormone therapy, Iressa 250 mg/day
Protocol: (§1) A prostate cancer patient having been diagnosed as ischial bone metastasis received the hormone therapy of Casodex and Leuplin. NITC was started on Jun. 11, 200X. […] On Sep. 18, 200X, severe low back pain and left hip joint and hip (ischial bone metastasis) pains were appeared, so morphine (MS Contin 40 mg/day) was used. From Oct. 29, 200X, Iressa 1T (250 mg/day) was started to use. Two months after the administration of Iressa, as the pains in low back, left hip joint and hip were alleviated, the administration of MS Contin decreased to 20 mg/day.
(§2) From Jul. […] From Aug. 17, 200X, Iressa 1T (250 mg/day) was initiated. […] Currently, Iressa is only temporarily and orally administered as a painkiller, when pain appears.

[1] = system: non-small cell lung cancer and prostate cancer; details: clinical data; cited from earlier work
prostate cancer = assay: Clinical cases: prostate cancer markers PSA and PAP; type: in vivo, human; details: Example 1, prostate cancer and ischial bone metastasis; Iressa added to NITC
Protocol: Abbreviations expressed were based on each general expression way.
as §1, §2

bone metastasis = assay: Clinical cases: bone metastasis marker 1CTP; type: in vivo, human; details: Example 1, prostate cancer and ischial bone metastasis; Iressa added to NITC
From the text: Effects of inhibiting bone metastasis were confirmed by the variation of 1CTP which is a bone metastasis marker. 1CTP has been practically used as a specific marker for bone resorption and there is, for example, 1CTP kit supplied by Orion (Clin. Chem. 39: 635-640, 1993). The kit uses a decalcified human thigh bone, which is degraded and purified in vitro by a purified bacterial collagenase, as an antigen (1CTP), to immunize a rabbit to produce an antibody, and the antigen is labeled with ^125I to make competitive radioimmunoassay (RIA). Its measuring sensitivity is 0.5 ng/ml or less and the measurement is possible to at least 50 ng/ml. Further, the mean value in blood level of 287 cases from 25-year old to 72-year old is 3.00±1.12 ng/ml (average±S.D.). 1CTP in blood has shown abnormal values in various metabolic bone diseases such as bone metastasis and hyperparathyroidism by now, and further has also been recognized to correlate with therapeutic process. The kit to measure 1CTP is a known clinical diagnosis one, and there is a RIA kit, pyridinoline 1CTP “Chugai” manufactured by Chugai Diagnostics Science Co., Ltd. Specifically, it is a radioimmunoassay reagent using ^125I as a label. However, other well known reagents such as enzyme immunoassay reagent using an enzyme labeling and fluorescence immunoassay reagent using a fluorescent substance can of course be applied. […]

CCNC(=O)[C@@H]1CCCN1C(=O)[C@H](CCCNC(=N)N)NC(=O)[C@H](CC(C)C)NC(=O)[C@@H](CC(C)C)NC(=O)[C@H](Cc1ccc(O)cc1)NC(=O)[C@H](CO)NC(=O)[C@H](Cc1c[nH]c2ccccc12)NC(=O)[C@H](Cc1c[nH]cn1)NC(=O)[C@@H]1CCC(=O)N1 [Leuplin]
generalized bone pain (bone metastasis pain; Example 2): the pain was not weakened

CN1CC[C@]23c4c5ccc(O)c4O[C@H]2[C@@H](O)C=C[C@H]3[C@H]1C5 [morphine]
generalized bone pain (bone metastasis pain; Example 2): could not alleviate the pain

COc1cc2ncnc(Nc3ccc(F)c(Cl)c3)c2cc1OCCCN1CCOCC1 [Iressa]
CR (complete remission) [1]: almost nothing
pains in low back, left hip joint and hip (bone metastasis pain; Example 1, two months after the administration of Iressa 250 mg/day): alleviated
effect as painkiller compared with morphine (bone metastasis pain; Example 2): stronger effect than morphine
pains after dose reduction (bone metastasis pain; Example 2, Iressa decreased to 250 mg/alternate day and 250 mg/three days): pains disappeared
generalized bone pain (bone metastasis pain; Example 2): alleviated significantly
PSA and PAP (prostate cancer markers) (prostate cancer): kept decreasing significantly
1CTP (bone metastasis marker) (bone metastasis): the increase of 1CTP also terminated, showing a tendency to decrease
